Patent publication US10105443B2, “Sustained-release drug carrier composition” (POLYPID LTD., priority 2008, dated 2018)

What was measured:
Format in all cases: physicochemical
[1] = Influence of polymer/lipid composition of the matrix on release rate of the entrapped agent; settings: FIG. 8
Method: The influence of different polymer/lipid compositions on the release rate of a given drug was measured using fluorescein entrapped within a matrix compositing PLGA (75:25), DPPC as the main phospholipid and varying amounts of lauric acid (LA) and phosphatidylethanolamine (PE) having saturated fatty acid moieties of at least 14 carbons. […] The release lasted between about 20 to about 110 days when LA:PE w/w % ratio was varied between 10:10 to 0:0 respectively (vs. the total mass of the formulation). The drug release profile from bone particles coated with matrix formulation comprising PE versus bone particles coated with matrix formulation comprising cholesterol was compared.
The fact that different polymer/lipid compositions influence the release rate can be used to fulfill different clinical needs. […] In contrast, when the antibiotic drug, DOX, was associated with a slow degrading polymer such as PLGA 85:15 and a 18:0 phospholipid such as DSPC, complete release of the drug was accomplished after more than 50 days (FIG. 8).

[2] = Release of drug from bone filler particles coated with the matrix composition following hydration; settings: for kinetics of co-release from the surface of coated bone particles: surrounding medium 5% PBS at 37° C., FIG. 15; for period of constant release of DOX: bone filler particles (BioOss) coated with matrix PLGA 85:15, cholesterol, DSPC (18:0), with or without alpha-tocopherol
Method: • 50-75 KDa PLGA (poly (lactic-co-glycolic acid, 85:15 ratio)) • Cholesterol-50%-100% w/w vs. PLGA. The mixture is mixed. The entire process is performed at room temperature. A fat-polymer combination matrix is thus obtained. II. Preparation of Second Solution The following materials are mixed with a volatile organic solvent (methanol and ethyl acetate) • a. […] A phosphatidylcholine, —1,2-distearoyl-sn-glycero-3-phosphocholine (DSPC) present as 300-700% w/w vs. PLGA. The mixture is mixed well. The entire process is conducted at room temperature. When phosphatidylcholine having long saturated fatty chains is used (e.g. DSPC) the process is typically performed at higher temperatures of about 40-50° C. No water is required in the mixture. […] Stirring is continued for 1-5 minutes. The entire process is performed at a temperature of 20-50° C. depending of the lipid used. IV—Evaporation Following Surface Coating In order to coat bone filler particles, the particles are added to the mixture of stage III followed by evaporation of the volatile organic solvents. The entire process is performed at a temperature of 40-50° C. The ratio between the volume and the percentage of solids in the mixture of stage III and the mass of the bone particles will determine the release period of the drug post hydration of the coated particles. V—Vacuum Drying Coated bone particles are vacuum-dried for storage. […] The rate of sustained release of Doxycycline hyclate encapsulated within the matrix composition of the present invention was measured and compared to the release rate of the drug from bone particles socked with free DOX solution (having the same amount of DOX).
The release profile of DOX from a mixture of coated and non coated bone (xenografts bovine—commercial—BioOss) particles was measured. The coated particles were mixed with similar plain (not-coated) bone particles in a ratio of 1:4. […] The formulation in this study comprised PLGA 75:25 and DPPC.
The release of DOX from bone particles (12 mg/sample) coated with different mass of the DOX containing matrix formulation was compared. Following hydration (5% serum at 37° C.) the duration of release of 90% of the initial DOX amount in the formulation was monitored (FIG. 10).

[3] = Drug release from absorbable gelatin sponge containing the sustained release formulation (HPLC); settings: 5% serum at 37° C.
Method: A solution containing PLGA—75:25, PC 16:0, cholesterol 10% and Doxycycline hyclate (DOX) 10% was injected into the center of the absorbable gelatin sponge foam cube (Gelatamp. ROEKO). The overall content of DOX in the injected formulation was 380 μg in 25 μl. The solvent was evaporated in a 37° C. incubator and subsequently over night under vacuum. As a control, the common use of pre-wetting with a similar dose of DOX (380 μg) solution was injected into the gelatin sponge tube. Following hydration (5% serum at 37° C.) the release of DOX from the gelatin sponge cube into the surrounding was detected and quantified by HPLC.

Row | time to full release of the drug ([1]; PLGA 50:50 and 14:0 phospholipid DMPC) | share of encapsulated DOX released following zero order kinetics ([2]; DOX encapsulated in the formulation, FIG. 2) | period of constant release of DOX [2] | period of constant release of DOX ([2]; listed as Doxycycline hyclate) | release kinetics ([2]; bone filler particles coated with matrix PLGA 85:15, cholesterol, DSPC, FIG. 2) | drug released in 3 hours after hydration ([2]; bone particles coated with PLGA 75:25 / DPPC formulation, mixed 1:4 with non-coated particles, 5% serum at 37° C.) | release profile, matrix comprising PE (DMPE) versus matrix comprising cholesterol ([2]; coated bone particles, 5% serum at 37° C., FIG. 7) | effect of presence of non-coated particles on release of DOX from the formulation ([2]; coated:non-coated bone particles 1:4, 5% serum at 37° C., PLGA 75:25 and DPPC) | drug released in 3 hours after hydration ([2]; uncoated bone particles soaked with free DOX (control), 5% serum at 37° C.) | DOX released immediately into the medium ([3]; control: gelatin sponge pre-wetted with DOX solution (380 μg)) | DOX released into the medium immediately after hydration ([3]; gelatin sponge (Gelatamp) with PLGA 75:25, PC 16:0, cholesterol 10%, DOX 10%, 380 μg DOX) | period of gradual release of the rest of the drug ([3]; gelatin sponge with PLGA 75:25, PC 16:0, cholesterol 10%, DOX 10%) | time to complete release of the drug ([1]; PLGA 85:15 and 18:0 phospholipid DSPC) | Molecule | kinetics of co-release from the surface of coated bone particles [2] | dependence of duration of release of 90% of DOX on formulation mass ([2]; bone particles 12 mg/sample coated with different mass of formulation, 5% serum at 37° C., FIG. 10)
1 | ≤ 10 days | – | – | – | – | – | – | – | – | – | – | – | – | CC(C(=O)O)c1ccc(-c2ccccc2)c(F)c1 (stereo not shown) [NSAID, Flurbiprofen] | – | –
2 | – | – | – | – | – | – | – | – | – | – | – | – | – | CCCCCCCCCCCCCCCC(=O)OC[C@H](COP(=O)([O-])OCC[N+](C)(C)C)OC(=O)CCCCCNc1ccc([N+](=O)[O-])c2nonc12 [NBD-PC, 1-palmitoyl-2-{6-[(7-nitro-2-1,3-benzoxadiazol-4-yl)amino]hexanoyl}-sn-glycero-3-phosphocholine] | zero order kinetics | –
3 | – | ~70% | at least 3 weeks | about three | zero order kinetics | about 15% | behaves similarly | not affected | 88% | total amount | about 40% | more than 7 days | more than 50 days | Doxycycline hyclate | zero order kinetics | linearly depended on the formulation mass
